Test results from article PMC9019904, “AD Informer Set: Chemical tools to facilitate Alzheimer's disease drug discovery” (Alzheimer's & Dementia : Translational Research & Clinical …, 2022).

Assays:
[1] = test system: BV2 (mouse microglia) cell line; experiment: pHrodo-myelin phagocytosis/cell viability high content imaging assay: viability (cell count, nuclear area, nuclear intensity); conditions: 48 hours treatment
In short: (§1)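 Immortalized microglia are treated with compound (10 μM, single concentration) for 48 h, the final 20 h alongside pHrodo-myelin. Data are the mean of duplicates, reported as % of untreated control.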

[2] = test system: HMC3 (human microglia) cell line; experiment: as above; conditions: 48 hours treatment
In short: as §1

[3] = test system: BV2 (mouse microglia) cell line; experiment: pHrodo-myelin phagocytosis/cell viability high content imaging assay: phagocytosis signal; type: cell-based
In short: (§2)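 High content imaging, roughly 22 hours post pHrodo-myelin addition, recorded phagocytosis signal alongside viability in microglial lines BV2 (mouse) and HMC3 (human). Apoptosis tracked through intensity rise (early) and fall (later) among three extracted measurements.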

[4] = test system: HMC3 (human microglia) cell line; experiment: as above; type: cell-based
In short: as §2

[5] = BV2 cells, 10 uM compound, 48 hours treatment, pHrodo-myelin final 20 hours
[6] = HMC3 cells, 10 uM compound, 48 hours treatment, pHrodo-myelin final 20 hours
[7] = BV2, compound 10 uM, pHrodo-myelin
[8] = HMC3, compound 10 uM, pHrodo-myelin

| Structure (SMILES) | 1. Cell count (% control) ([1]; BV2 cells, 10 uM compound) | 2. Nuclear Area (% Control) ([1]; BV2 cells, 10 uM compound) | 3. Nuclear DNA Intensity (% control) ([1]; BV2 cells, 10 uM compound) | 1. Cell count (% control) ([2]; HMC3 cells, 10 uM compound) | 2. Nuclear Area (% Control) ([2]; HMC3 cells, 10 uM compound) | 3. Nuclear DNA Intensity (% control) ([2]; HMC3 cells, 10 uM compound) | 4. Phagocytosis (% control) [3, 5] | 4. Phagocytosis (% control) [4, 6] | 1. Cell count (% control) ([1]; BV2, compound 10 uM) | 2. Nuclear Area (% Control) ([1]; BV2, compound 10 uM) | 3. Nuclear DNA Intensity (% control) ([1]; BV2, compound 10 uM) | 1. Cell count (% control) ([2]; HMC3, compound 10 uM) | 2. Nuclear Area (% Control) ([2]; HMC3, compound 10 uM) | 3. Nuclear DNA Intensity (% control) ([2]; HMC3, compound 10 uM) | 4. Phagocytosis (% control) [3, 7] | 4. Phagocytosis (% control) [4, 8] |
| --- | --- | --- | --- | --- | --- | --- | --- | --- | --- | --- | --- | --- | --- | --- | --- | --- |
| N#CC(CCCN1CCN(/N=C/c2cccnc2)CC1)(c1ccccc1)c1ccccc1 [UNC10302973A] | 73.0 % control | 106.0 % Control | 96.8 % control | 118.4 % control | 102.3 % Control | 89.1 % control | 132.9 % control | 84.2 % control | – | – | – | – | – | – | – | – |
| O=C(Nc1ccc([N+](=O)[O-])cc1Cl)c1cc(Cl)ccc1O [UNC10302856A] | 132.8 % control | 104.4 % Control | 103.0 % control | 150.0 % control | 101.6 % Control | 94.0 % control | 133.2 % control | 50.1 % control | – | – | – | – | – | – | – | – |
| CC(C)CCC[C@@H](C)[C@H]1CC[C@H]2[C@@H]3CC[C@H]4C[C@H](N)CC[C@]4(C)[C@H]3CC[C@]12C [UNC10302970A] | 18.3 % control | 108.5 % Control | 93.1 % control | 97.2 % control | 81.8 % Control | 134.0 % control | 160.9 % control | 40.9 % control | – | – | – | – | – | – | – | – |
| CCN(C)C(=O)Oc1cccc([C@H](C)N(C)C)c1 [UNC10303091A] | 139.1 % control | 103.4 % Control | 100.1 % control | 141.4 % control | 98.9 % Control | 95.5 % control | 166.0 % control | 80.4 % control | – | – | – | – | – | – | – | – |
| CN(C)CC#Cc1ccc(OCCCc2sc(N3CCc4cccc(C(=O)Nc5nc6ccccc6s5)c4C3)nc2C(=O)O)c(F)c1 [UNC10302697A] | – | – | – | – | – | – | – | – | 84.3 % control | 106.7 % Control | 111.2 % control | 92.7 % control | 89.5 % Control | 121.7 % control | 206.2 % control | 54.1 % control |
| CN(C)CCCN1c2ccccc2Sc2ccc(Cl)cc21.Cl [UNC10100309D] | 82.7 % control | 103.4 % Control | 99.3 % control | 119.8 % control | 102.8 % Control | 91.9 % control | 128.7 % control | 88.5 % control | – | – | – | – | – | – | – | – |
| CNC(=O)CN1CCC(Oc2cc3c(Nc4cccc(Cl)c4F)ncnc3cc2OC)CC1 [UNC10302865A] | 102.4 % control | 110.1 % Control | 101.0 % control | 132.1 % control | 105.8 % Control | 90.8 % control | 68.8 % control | 152.7 % control | – | – | – | – | – | – | – | – |
| CC(C)(C)c1cc(NC(=O)Nc2ccc(-c3cn4c(n3)sc3cc(OCCN5CCOCC5)ccc34)cc2)no1 [UNC10220373A] | – | – | – | – | – | – | – | – | 110.4 % control | 100.2 % Control | 106.6 % control | 110.3 % control | 101.4 % Control | 94.2 % control | 143.1 % control | 81.7 % control |
| COc1ccc(CCN2CCN(CCCc3ccccc3)CC2)cc1OC.Cl.Cl [UNC10302848A] | 91.1 % control | 105.5 % Control | 98.2 % control | 84.9 % control | 99.2 % Control | 95.9 % control | 120.8 % control | 82.7 % control | – | – | – | – | – | – | – | – |
| Cc1ccccc1NC(=O)CN1C(=O)N/C(=C/c2ccccc2OCc2ccc(C(=O)O)cc2)C1=O [UNC10302882A] | 94.9 % control | 109.5 % Control | 96.5 % control | 155.5 % control | 101.8 % Control | 92.5 % control | 153.2 % control | 89.7 % control | – | – | – | – | – | – | – | – |
| O=C(/C=C/c1ccco1)Nc1ncc(Cc2ccccc2)s1 [UNC10302883A] | 36.1 % control | 95.3 % Control | 118.7 % control | 163.4 % control | 60.3 % Control | 203.4 % control | 12.7 % control | 17.7 % control | – | – | – | – | – | – | – | – |
| CC(C)(C(=O)O)c1ccc(C(O)CCCN2CCC(C(O)(c3ccccc3)c3ccccc3)CC2)cc1.Cl (centres unmarked) [UNC10100548A] | 104.5 % control | 103.6 % Control | 104.0 % control | 137.5 % control | 98.8 % Control | 98.9 % control | 106.0 % control | 96.5 % control | – | – | – | – | – | – | – | – |
| Cc1cc(C)nc(NC(=S)N2CCN(c3ccc(C(F)(F)F)cn3)CC2)c1 [UNC10302906A] | 93.3 % control | 107.2 % Control | 105.6 % control | 134.6 % control | 95.0 % Control | 106.3 % control | 184.1 % control | 109.8 % control | – | – | – | – | – | – | – | – |
| CC(C)(O)c1coc(S(=O)(=O)[N-]C(=O)Nc2c3c(cc4c2CCC4)CCC3)c1.[Na+] [UNC10302861A] | 111.0 % control | 101.8 % Control | 106.4 % control | 119.4 % control | 98.5 % Control | 105.7 % control | 115.8 % control | 105.6 % control | – | – | – | – | – | – | – | – |
| COc1nc(OCc2cccc(-c3ccccc3)c2C)ccc1CNCCNC(C)=O.Cl [UNC10302832A] | 21.6 % control | 92.8 % Control | 35.4 % control | 35.9 % control | 69.0 % Control | 171.8 % control | 0.00132 % control | 0.4 % control | – | – | – | – | – | – | – | – |
| CCCC[C@@H](C=O)NC(=O)[C@H](CC(C)C)NC(=O)OCc1ccccc1 [UNC10302674A] | 102.6 % control | 106.4 % Control | 106.3 % control | 146.0 % control | 103.5 % Control | 93.8 % control | 195.1 % control | 69.0 % control | – | – | – | – | – | – | – | – |
| COc1cccc2c(NCc3ccccc3)nc(-n3c(N)nc4ccccc43)nc12 [UNC10302841A] | 33.6 % control | 129.2 % Control | 62.4 % control | 55.4 % control | 78.1 % Control | 92.0 % control | 0.00115 % control | 0.0406 % control | – | – | – | – | – | – | – | – |
| O=C(NC1CC1)C(=O)C(Cc1ccccc1)NC(=O)[C@H]1CCC(=O)N1Cc1ccccc1 (some centres unmarked) [UNC10302676A] | 127.5 % control | 105.0 % Control | 102.8 % control | 123.8 % control | 98.7 % Control | 104.1 % control | 108.4 % control | 95.9 % control | – | – | – | – | – | – | – | – |
| C=CC[N+]1(C2CC3C4CCC5CC(O)C(N6CCOCC6)CC5(C)C4CCC3(C)C2OC(C)=O)CCCC1.[Br-] (centres unmarked) [UNC10302696A] | – | – | – | – | – | – | – | – | 144.5 % control | 102.9 % Control | 102.4 % control | 145.5 % control | 103.7 % Control | 86.9 % control | 148.6 % control | 62.6 % control |
